According to ChEMBL document CHEMBL1201862, “PubChem BioAssay data set” (2004):
Activity calls are given as the source filed them.

How the values were obtained:
[1] = target: T1, Microphthalmia-associated transcription factor (Homo sapiens, UniProt O75030); assay: reducers of TRPM1 reporter luminescence, concentration series – cell-based, SK-MEL-5, cherry-picked, set 3, MITF inhibitor project, dose response (AID 493073); format: functional;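 further: SK-MEL-5 melanoma cells with luciferase driven by the MITF target TRPM1 promoter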
T1 sequence (O75030 whole entry): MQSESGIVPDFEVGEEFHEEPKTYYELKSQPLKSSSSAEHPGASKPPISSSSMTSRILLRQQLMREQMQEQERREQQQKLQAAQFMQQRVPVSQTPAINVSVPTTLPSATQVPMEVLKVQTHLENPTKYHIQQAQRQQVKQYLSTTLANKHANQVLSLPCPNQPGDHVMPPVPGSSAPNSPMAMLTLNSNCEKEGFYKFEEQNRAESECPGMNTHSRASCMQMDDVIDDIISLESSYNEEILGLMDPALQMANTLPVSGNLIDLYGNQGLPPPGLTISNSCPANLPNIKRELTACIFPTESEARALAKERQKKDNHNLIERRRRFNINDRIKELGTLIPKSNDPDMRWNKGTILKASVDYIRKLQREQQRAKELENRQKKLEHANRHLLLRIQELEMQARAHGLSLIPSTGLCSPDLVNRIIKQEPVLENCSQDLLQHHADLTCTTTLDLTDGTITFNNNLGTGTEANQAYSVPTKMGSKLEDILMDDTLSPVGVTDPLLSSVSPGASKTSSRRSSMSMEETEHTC

[2] = test system: A-375; assay: MITF: Counter assay: A375 proliferation Measured in Cell-Based System Using Plate Reader - 2084-03_Inhibitor_Dose_DryPowder_Activity. [Related pubchem assays (depositor defined):AID488944]; format: functional; details: Homo sapiens
[3] = target: T2, Corticotropin-releasing factor receptor 2/Corticotropin-releasing factor-binding protein (Homo sapiens, UniProt P24387+Q13324); assay: activators of CRF receptor 2 with binding protein – uHTS hits, confirmation (AID 602473); format: functional; details: read-out: EC50_Mean
T2 sequence (Q13324 whole entry): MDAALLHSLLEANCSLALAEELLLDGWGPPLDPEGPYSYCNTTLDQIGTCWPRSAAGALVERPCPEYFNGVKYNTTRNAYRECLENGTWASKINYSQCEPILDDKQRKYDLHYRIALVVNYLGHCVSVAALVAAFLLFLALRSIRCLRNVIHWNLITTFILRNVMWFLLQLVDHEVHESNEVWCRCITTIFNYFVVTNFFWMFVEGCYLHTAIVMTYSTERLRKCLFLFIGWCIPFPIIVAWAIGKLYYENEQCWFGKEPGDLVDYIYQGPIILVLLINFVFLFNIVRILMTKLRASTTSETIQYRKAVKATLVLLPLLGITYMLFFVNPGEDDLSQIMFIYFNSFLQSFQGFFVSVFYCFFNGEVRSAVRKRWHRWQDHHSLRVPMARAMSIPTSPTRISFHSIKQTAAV
T2 sequence (P24387 whole entry): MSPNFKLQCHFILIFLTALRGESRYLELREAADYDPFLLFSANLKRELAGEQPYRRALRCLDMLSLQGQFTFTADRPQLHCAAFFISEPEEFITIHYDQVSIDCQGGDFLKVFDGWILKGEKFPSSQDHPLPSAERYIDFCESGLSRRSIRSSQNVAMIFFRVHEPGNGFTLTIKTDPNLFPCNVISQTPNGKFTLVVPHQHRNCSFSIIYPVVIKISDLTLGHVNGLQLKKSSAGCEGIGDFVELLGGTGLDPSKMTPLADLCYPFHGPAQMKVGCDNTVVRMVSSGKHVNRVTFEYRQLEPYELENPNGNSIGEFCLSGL

[4] = target: T3, SUMO-activating enzyme (Homo sapiens, UniProt Q9UBT2); assay: blockers of UBC9-mediated SUMO conjugation – biochemical, AlphaScreen, SUMOylation inhibitor project, confirmation (AID 2018); format: functional
T3 sequence (Q9UBE0 whole entry): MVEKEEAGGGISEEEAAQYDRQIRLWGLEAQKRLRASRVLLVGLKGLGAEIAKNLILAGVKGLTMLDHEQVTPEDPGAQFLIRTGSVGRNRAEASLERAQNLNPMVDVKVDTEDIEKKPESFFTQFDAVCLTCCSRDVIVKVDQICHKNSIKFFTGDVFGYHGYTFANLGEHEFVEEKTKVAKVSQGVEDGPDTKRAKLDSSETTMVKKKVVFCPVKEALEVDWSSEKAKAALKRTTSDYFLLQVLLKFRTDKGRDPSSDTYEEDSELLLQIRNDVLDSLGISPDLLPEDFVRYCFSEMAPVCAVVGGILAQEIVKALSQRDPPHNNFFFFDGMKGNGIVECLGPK
T3 sequence (Q9UBT2 whole entry): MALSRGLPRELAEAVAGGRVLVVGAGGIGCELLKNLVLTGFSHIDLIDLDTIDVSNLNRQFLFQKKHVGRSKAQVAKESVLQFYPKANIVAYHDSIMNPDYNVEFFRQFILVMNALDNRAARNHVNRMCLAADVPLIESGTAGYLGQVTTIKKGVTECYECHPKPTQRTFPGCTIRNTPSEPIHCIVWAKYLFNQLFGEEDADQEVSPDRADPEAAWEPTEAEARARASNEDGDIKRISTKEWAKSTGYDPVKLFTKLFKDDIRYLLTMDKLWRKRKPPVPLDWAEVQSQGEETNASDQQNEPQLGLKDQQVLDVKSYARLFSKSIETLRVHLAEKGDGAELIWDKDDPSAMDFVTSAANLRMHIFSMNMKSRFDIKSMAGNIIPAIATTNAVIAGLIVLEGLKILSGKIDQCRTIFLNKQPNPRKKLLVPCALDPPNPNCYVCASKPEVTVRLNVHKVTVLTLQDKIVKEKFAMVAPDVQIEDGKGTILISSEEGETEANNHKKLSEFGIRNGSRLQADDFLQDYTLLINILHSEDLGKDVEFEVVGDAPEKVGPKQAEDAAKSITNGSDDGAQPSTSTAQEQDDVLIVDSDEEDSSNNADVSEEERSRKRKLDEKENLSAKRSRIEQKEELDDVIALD

[5] = target: T3, SUMO-activating enzyme; assay: blockers of SAE1/SAE2–UBC9 SUMO transfer – biochemical, HTRF, uHTS, primary screen (AID 2006); format: protein-complex assay
[6] = cells; format: functional
[7] = target: T4, Replicative DNA helicase DnaB (Mycobacterium tuberculosis, UniProt P9WMR3); assay: DnaB intein splicing inhibitors, dose response, biochemical, cell-free fluorescence (AID 449749); format: functional
T4 sequence (P9WMR3 whole entry): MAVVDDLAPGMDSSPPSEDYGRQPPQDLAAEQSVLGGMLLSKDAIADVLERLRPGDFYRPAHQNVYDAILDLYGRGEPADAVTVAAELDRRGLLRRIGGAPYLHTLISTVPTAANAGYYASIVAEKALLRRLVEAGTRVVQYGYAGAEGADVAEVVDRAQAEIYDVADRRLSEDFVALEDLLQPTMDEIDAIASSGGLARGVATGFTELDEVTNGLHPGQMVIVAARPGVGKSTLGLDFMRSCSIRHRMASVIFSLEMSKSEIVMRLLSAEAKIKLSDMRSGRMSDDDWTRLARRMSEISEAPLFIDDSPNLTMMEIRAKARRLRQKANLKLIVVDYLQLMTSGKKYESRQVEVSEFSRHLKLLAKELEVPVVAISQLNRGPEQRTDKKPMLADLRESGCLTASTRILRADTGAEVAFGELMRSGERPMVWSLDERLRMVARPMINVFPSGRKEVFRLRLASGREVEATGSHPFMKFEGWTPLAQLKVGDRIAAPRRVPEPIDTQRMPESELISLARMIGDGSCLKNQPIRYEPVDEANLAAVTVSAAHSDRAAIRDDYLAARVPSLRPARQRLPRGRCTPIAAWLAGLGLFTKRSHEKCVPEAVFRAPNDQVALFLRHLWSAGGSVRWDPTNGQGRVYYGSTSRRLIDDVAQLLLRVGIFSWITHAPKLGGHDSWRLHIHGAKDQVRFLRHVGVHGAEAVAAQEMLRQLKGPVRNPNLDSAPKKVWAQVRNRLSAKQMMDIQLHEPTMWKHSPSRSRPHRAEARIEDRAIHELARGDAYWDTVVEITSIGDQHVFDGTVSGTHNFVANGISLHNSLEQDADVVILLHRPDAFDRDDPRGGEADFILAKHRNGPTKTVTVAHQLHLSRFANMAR

[8] = target: T5, Protein RecA (Mycobacterium tuberculosis, UniProt P9WHJ3); assay: Fluorescence Cell-Free Homogeneous Dose Retest to Identify Inhibitors of RecA-Intein Splicing Activity. [Related pubchem assays (depositor defined):AID2097, AID2223, AID489010, AID492950]; format: functional
T5 sequence (P9WHJ3 whole entry): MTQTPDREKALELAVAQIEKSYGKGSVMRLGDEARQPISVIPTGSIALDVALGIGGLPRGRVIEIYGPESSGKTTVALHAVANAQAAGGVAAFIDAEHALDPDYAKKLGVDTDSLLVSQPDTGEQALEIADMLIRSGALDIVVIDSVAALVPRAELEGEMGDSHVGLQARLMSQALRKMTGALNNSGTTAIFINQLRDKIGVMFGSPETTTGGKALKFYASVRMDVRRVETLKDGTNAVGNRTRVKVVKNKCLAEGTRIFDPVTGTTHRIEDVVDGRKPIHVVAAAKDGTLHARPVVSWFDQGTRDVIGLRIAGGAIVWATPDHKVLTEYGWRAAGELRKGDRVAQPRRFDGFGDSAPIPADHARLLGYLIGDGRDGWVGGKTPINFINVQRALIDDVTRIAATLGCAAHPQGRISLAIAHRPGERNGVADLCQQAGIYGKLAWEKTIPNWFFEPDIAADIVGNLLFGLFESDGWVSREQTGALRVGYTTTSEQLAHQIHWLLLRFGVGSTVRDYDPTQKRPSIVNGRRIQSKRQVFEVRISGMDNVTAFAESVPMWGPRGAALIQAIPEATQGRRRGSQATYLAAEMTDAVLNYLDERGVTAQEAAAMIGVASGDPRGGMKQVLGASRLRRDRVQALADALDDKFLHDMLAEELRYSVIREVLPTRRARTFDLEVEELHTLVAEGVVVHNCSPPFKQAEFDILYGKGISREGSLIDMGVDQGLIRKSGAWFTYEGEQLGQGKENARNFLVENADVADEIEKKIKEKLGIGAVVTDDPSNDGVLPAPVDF

[9] = target: Genome polyprotein (dengue virus type 2, UniProt P29990); assay: flavivirus cap methylation enzyme inhibition – biochemical, confirmation dose response, primary screen (AID 588689); format: functional
Chain of Genome polyprotein (P29990 2492-3391 limits assumed): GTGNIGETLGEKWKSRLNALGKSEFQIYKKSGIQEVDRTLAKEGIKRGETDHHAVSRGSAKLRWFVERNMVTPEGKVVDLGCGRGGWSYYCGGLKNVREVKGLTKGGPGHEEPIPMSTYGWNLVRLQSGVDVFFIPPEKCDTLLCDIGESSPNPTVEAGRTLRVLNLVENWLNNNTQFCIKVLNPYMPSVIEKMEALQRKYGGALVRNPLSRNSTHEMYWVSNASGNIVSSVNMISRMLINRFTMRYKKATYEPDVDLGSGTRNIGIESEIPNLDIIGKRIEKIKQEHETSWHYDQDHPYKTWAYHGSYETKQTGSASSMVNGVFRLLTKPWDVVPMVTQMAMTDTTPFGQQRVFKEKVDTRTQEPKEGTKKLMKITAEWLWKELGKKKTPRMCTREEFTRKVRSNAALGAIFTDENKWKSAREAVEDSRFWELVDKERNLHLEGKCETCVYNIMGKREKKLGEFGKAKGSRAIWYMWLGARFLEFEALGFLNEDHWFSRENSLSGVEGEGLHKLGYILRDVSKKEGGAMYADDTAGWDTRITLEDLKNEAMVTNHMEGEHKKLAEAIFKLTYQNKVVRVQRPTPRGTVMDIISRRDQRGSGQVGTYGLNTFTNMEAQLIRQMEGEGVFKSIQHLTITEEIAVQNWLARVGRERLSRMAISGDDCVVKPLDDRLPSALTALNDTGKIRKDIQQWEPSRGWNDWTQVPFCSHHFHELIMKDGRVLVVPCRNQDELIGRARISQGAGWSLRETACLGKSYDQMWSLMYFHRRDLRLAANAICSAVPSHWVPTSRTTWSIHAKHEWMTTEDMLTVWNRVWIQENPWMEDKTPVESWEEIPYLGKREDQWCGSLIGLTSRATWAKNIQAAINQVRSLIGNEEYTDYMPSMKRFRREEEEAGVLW

[10] = target: T6, Rac GTPase-activating protein 1 (Homo sapiens, UniProt Q9H0H5); assay: blockers of MgcRacGAP-driven Rac1 GTP hydrolysis – biochemical, ADP Hunter fluorescence, primary and confirmatory, confirmation (AID 624330); format: functional
T6 sequence (Q9H0H5 whole entry): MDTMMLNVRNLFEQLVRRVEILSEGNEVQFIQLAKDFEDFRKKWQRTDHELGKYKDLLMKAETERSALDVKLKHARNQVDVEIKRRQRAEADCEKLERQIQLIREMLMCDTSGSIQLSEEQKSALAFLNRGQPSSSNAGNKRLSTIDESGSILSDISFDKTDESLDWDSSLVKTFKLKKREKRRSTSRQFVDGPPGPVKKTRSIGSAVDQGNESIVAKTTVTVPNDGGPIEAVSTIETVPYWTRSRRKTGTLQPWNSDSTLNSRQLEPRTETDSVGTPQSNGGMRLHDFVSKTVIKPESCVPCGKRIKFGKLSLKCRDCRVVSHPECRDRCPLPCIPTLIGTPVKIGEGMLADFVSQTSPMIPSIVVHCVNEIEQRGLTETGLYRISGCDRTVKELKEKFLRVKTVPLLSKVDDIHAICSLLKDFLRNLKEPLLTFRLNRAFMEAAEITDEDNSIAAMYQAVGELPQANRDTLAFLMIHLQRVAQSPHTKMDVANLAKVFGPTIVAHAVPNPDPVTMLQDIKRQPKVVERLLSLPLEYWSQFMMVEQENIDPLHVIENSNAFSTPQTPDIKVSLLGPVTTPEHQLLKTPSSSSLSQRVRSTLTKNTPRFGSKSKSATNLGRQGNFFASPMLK

[11] = target: Glucose-6-phosphate 1-dehydrogenase (Homo sapiens, UniProt P11413); assay: inhibition of Homo sapiens G6PD, dose series – biochemical, fluorescence, selectivity assay for P. falciparum G6PD inhibitor project, dose response (AID 504792); format: functional
Chain of Glucose-6-phosphate 1-dehydrogenase (P11413 whole entry): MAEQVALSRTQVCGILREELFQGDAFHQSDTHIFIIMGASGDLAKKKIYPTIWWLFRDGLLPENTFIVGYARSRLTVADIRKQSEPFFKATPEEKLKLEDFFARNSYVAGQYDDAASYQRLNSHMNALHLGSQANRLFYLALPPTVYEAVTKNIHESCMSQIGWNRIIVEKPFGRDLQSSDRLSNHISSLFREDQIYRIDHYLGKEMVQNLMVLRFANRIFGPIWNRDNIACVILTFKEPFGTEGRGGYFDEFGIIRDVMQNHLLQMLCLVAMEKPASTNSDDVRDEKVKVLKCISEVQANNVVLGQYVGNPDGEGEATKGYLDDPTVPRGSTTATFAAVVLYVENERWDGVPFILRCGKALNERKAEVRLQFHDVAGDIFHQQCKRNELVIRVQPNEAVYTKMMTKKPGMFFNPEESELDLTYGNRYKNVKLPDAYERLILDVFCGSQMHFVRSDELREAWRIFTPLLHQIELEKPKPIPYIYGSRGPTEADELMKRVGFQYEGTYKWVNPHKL

[12] = target: T7, Tyrosine-protein phosphatase non-receptor type 7 (Homo sapiens, UniProt P35236); format: functional
T7 sequence (P35236 whole entry): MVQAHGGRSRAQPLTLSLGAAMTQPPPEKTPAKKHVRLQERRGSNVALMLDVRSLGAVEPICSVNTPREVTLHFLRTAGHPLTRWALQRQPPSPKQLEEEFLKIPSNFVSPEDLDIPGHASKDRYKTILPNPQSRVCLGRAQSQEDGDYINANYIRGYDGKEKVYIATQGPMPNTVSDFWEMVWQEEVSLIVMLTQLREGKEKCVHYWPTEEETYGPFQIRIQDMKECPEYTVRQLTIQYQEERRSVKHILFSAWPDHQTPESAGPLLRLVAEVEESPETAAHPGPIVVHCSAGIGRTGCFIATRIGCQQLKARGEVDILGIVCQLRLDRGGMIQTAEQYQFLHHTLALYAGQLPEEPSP

[13] = target: T8, Tyrosine-protein phosphatase non-receptor type 22 (Homo sapiens, UniProt Q9Y2R2); format: functional
T8 sequence (Q9Y2R2 whole entry): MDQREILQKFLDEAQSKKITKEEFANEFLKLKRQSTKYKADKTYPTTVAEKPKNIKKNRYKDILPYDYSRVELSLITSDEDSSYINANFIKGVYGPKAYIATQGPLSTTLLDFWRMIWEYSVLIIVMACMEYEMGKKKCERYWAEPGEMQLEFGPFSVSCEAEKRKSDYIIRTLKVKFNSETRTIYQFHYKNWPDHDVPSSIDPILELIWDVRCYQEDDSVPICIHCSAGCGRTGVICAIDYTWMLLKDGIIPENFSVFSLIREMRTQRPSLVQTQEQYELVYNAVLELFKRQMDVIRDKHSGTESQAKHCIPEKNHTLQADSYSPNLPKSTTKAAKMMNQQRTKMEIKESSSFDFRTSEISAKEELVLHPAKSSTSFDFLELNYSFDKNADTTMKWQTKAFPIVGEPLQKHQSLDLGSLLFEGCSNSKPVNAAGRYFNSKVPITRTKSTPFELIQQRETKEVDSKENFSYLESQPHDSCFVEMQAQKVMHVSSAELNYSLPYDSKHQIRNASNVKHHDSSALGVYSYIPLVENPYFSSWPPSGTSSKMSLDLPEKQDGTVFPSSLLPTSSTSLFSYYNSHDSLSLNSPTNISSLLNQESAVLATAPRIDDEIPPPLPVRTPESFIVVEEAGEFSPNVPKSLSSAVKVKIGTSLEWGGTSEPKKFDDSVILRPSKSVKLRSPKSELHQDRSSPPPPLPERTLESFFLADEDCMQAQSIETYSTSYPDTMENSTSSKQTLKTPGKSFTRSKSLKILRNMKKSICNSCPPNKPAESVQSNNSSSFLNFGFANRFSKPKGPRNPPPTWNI

[14] = target: T8, Tyrosine-protein phosphatase non-receptor type 22; format: functional; remark: listed apart in the source

Compound	AC50 [1]	AC50 [2]	IC50 [4]	IC50 [5]	AC50 [7]	EC50 [8]	other results
CCOC(=O)/C=c1/s/c(=C/c2ccc3cc(OC)ccc3c2)c(=O)n1CC(=O)NCC1CCCO1 (stereo not given)	6.79 µM (active)	29.7 µM (active)					EC50 [3]: 7.75 µM (active)
CC1=NN(c2ccc(C(=O)O)cc2)C(=O)/C1=C\c1ccc(OC(=O)c2cccs2)cc1			7.86 µM (active)	57.7 µM (active)	2.08 µM (active)	1.9 µM (active)	IC50 [6]: 15.1 µM (active); IC50 [9]: 15.6 µM (active); IC50 [10]: 185 µM (active)
N#Cc1ccc(N=c2ssnc2Cl)cc1							IC50 [11]: 48.3 µM (inactive)
Cc1nn(-c2ccc(Cl)cc2)c(O)c1C(c1cccc(O)c1)c1c(C)[nH]n(-c2ccc(Cl)cc2)c1=O (stereo not given)			4.08 µM (active)	47.8 µM (active)	1.36 µM (active)	0.897 µM (active)	
CCOc1ccccc1NC(=O)CSc1nnc(Cc2cccn2C)n1-c1ccc(F)cc1							IC50 [12]: > 79.4 µM (inactive); IC50 [13]: > 79.4 µM (inactive); IC50 [14]: > 79.4 µM (inactive)
CN(C)c1ccc(/C=C(\C#N)c2ccccn2)cc1	6.32 µM (active)	45.2 µM (active)					
